Laboratory results reported in the CombiSolv-Exp solvation set (Vermeire and Green 2021).
Values belong to the compound of their own block, whether it stands above or below them.

Experiment: solvent given as SMILES
[1] = in CCCCCCCCC=CCCCCCCCC(=O)OCC(COC(=O)CCCCCCCC=CCCCCCCCC)OC(=O)CCCCCCCC=CCCCCCCCC

SMILES: C=CCCCC
solvation free energy, 298 K (in C1CCC2CCCCC2C1): -3.67 kcal/mol
solvation free energy, 298 K (in C1CCC(C2CCCCC2)CC1): -3.65 kcal/mol
solvation free energy, 298 K (in C=CCCCCCCCCCCCCCC): -3.48 kcal/mol
solvation free energy, 298 K (in CC#N): -2.96 kcal/mol
solvation free energy, 298 K (in CC(C)CC(C)(C)C): -3.78 kcal/mol
solvation free energy, 298 K (in CCC#N): -3.49 kcal/mol
solvation free energy, 298 K (in CCCC#N): -3.2 kcal/mol
solvation free energy, 298 K (in CCCCC(CC)COC(=O)CCCCC(=O)OCC(CC)CCCC): -3.36 kcal/mol
solvation free energy, 298 K (in CCCCC(CC)COC(=O)c1ccccc1C(=O)OCC(CC)CCCC): -3.18 kcal/mol
solvation free energy, 298 K (in CCCCCCC): -3.83 kcal/mol
solvation free energy, 298 K [1]: -3.41 kcal/mol
solvation free energy, 298 K (in CCCCCCCCCCCCCCCC): -3.51 kcal/mol
solvation free energy, 298 K (in CCCCCCCCO): -3.29 kcal/mol
solvation free energy, 298 K (in CCCCCO): -3.3 kcal/mol
solvation free energy, 298 K (in CCCCO): -3.22 kcal/mol
solvation free energy, 298 K (in CCCCOC(=O)c1ccccc1C(=O)OCCCC): -3.37 kcal/mol
solvation free energy, 298 K (in CCN1CCCC1=O): -3.11 kcal/mol
solvation free energy, 298 K (in CCN(CC)C(C)=O): -3.26 kcal/mol
solvation free energy, 298 K (in CCNC(C)=O): -3.04 kcal/mol
solvation free energy, 298 K (in CCNC=O): -2.85 kcal/mol
solvation free energy, 298 K (in CCOC(=O)c1ccccc1C(=O)OCC): -2.96 kcal/mol
solvation free energy, 298 K (in CN1CCCC1=O): -2.91 kcal/mol
solvation free energy, 298 K (in CN1CCCCC1=O): -3.06 kcal/mol
solvation free energy, 298 K (in CN1CCN(C)C1=O): -2.83 kcal/mol
solvation free energy, 298 K (in CN(C)C=O): -2.96 kcal/mol
solvation free energy, 298 K (in CNC=O): -2.55 kcal/mol
solvation free energy, 298 K (in COC(C)=O): -3.51 kcal/mol
solvation free energy, 298 K (in CS(C)=O): -2.1 kcal/mol
solvation free energy, 298 K (in Cc1cccc(C)c1): -3.74 kcal/mol
solvation free energy, 298 K (in N#CCCCCC#N): -2.31 kcal/mol
solvation free energy, 298 K (in N#Cc1ccccc1): -3.15 kcal/mol
solvation free energy, 298 K (in NC=O): -0.91 kcal/mol
solvation free energy, 298 K (in NCCO): -1.17 kcal/mol
solvation free energy, 298 K (in Nc1ccccc1): -2.68 kcal/mol
solvation free energy, 298 K (in O): 1.58 kcal/mol
solvation free energy, 298 K (in O=C1CCCO1): -2.49 kcal/mol
solvation free energy, 298 K (in O=CN1CCOCC1): -2.37 kcal/mol
solvation free energy, 298 K (in O=Cc1ccco1): -2.62 kcal/mol
solvation free energy, 298 K (in OCCO): -1.11 kcal/mol
solvation free energy, 298 K (in OCCOCCO): -1.73 kcal/mol
solvation free energy, 298 K (in OCCOCCOCCO): -1.83 kcal/mol
solvation free energy, 298 K (in OCCOCCOCCOCCO): -1.94 kcal/mol
solvation free energy, 298 K (in OCc1ccco1): -2.53 kcal/mol
solvation free energy, 298 K (in c1ccc2c(c1)CCCC2): -3.69 kcal/mol
solvation free energy, 298 K (in c1ccc(C2CCCCC2)cc1): -3.63 kcal/mol

SMILES: Brc1cc(Br)cc(Br)c1
solvation free energy, 298 K [1]: -8.73 kcal/mol
solvation free energy, 298 K (in O): -1.91 kcal/mol

SMILES: O=C1c2ccccc2-c2ccccc21
solvation free energy, 298 K (in CC(C)(C)O): -10.4 kcal/mol
solvation free energy, 298 K (in CC(C)CC(C)(C)C): -9.57 kcal/mol
solvation free energy, 298 K (in CC(C)CCO): -10.5 kcal/mol
solvation free energy, 298 K (in CC(C)CO): -10.3 kcal/mol
solvation free energy, 298 K (in CC(C)O): -10.4 kcal/mol
solvation free energy, 298 K (in CC(C)OC(C)C): -10.5 kcal/mol
solvation free energy, 298 K (in CCC(C)O): -10.5 kcal/mol
solvation free energy, 298 K (in CCCCC(CC)CO): -10.5 kcal/mol
solvation free energy, 298 K (in CCCCCC): -9.78 kcal/mol
solvation free energy, 298 K (in CCCCCCC): -9.83 kcal/mol
solvation free energy, 298 K (in CCCCCCCC): -9.86 kcal/mol
solvation free energy, 298 K [1]: -10.5 kcal/mol
solvation free energy, 298 K (in CCCCCCCCCC): -9.9 kcal/mol
solvation free energy, 298 K (in CCCCCCCCCCO): -10.6 kcal/mol
solvation free energy, 298 K (in CCCCCCCCO): -10.7 kcal/mol
solvation free energy, 298 K (in CCCCCCCO): -10.7 kcal/mol
solvation free energy, 298 K (in CCCCCCO): -10.6 kcal/mol
solvation free energy, 298 K (in CCCCCO): -10.6 kcal/mol
solvation free energy, 298 K (in CCCCO): -10.6 kcal/mol
solvation free energy, 298 K (in CCCO): -10.6 kcal/mol
solvation free energy, 298 K (in CCO): -10.6 kcal/mol
solvation free energy, 298 K (in CO): -10.6 kcal/mol
solvation free energy, 298 K (in COC(C)(C)C): -11 kcal/mol
solvation free energy, 298 K (in ClC(Cl)(Cl)Cl): -11.5 kcal/mol
solvation free energy, 298 K (in ClCCl): -12 kcal/mol
solvation free energy, 298 K (in Fc1ccccc1): -11.7 kcal/mol
solvation free energy, 298 K (in O): -5.78 kcal/mol

SMILES: O=C=S
solvation free energy, 298 K (in CC1COC(=O)O1): -1.15 kcal/mol
solvation free energy, 298 K (in CN1CCCC1=O): -1.41 kcal/mol
solvation free energy, 298 K (in COCCOCCOCCOCCOC): -1.41 kcal/mol
solvation free energy, 298 K (in O): 0.41 kcal/mol

SMILES: CSSC
solvation free energy, 298 K (in O): -1.74 kcal/mol

SMILES: ClCC(Cl)(Cl)Cl
solvation free energy, 298 K (in O): -1.43 kcal/mol

SMILES: CCCN(CCC)N=O
solvation free energy, 298 K (in CC(C)CC(C)(C)C): -6.56 kcal/mol

SMILES: CC1CCCC1
solvation free energy, 298 K (in CC1CCS(=O)(=O)C1): -2.51 kcal/mol
solvation free energy, 298 K (in CC#N): -2.8 kcal/mol
solvation free energy, 298 K (in CCCCCCCCCC): -3.93 kcal/mol
solvation free energy, 298 K (in CCCCCCCO): -3.51 kcal/mol
solvation free energy, 298 K (in CCCCCO): -3.51 kcal/mol
solvation free energy, 298 K (in CN1CCCC1=O): -2.99 kcal/mol
solvation free energy, 298 K (in CN1CCCCC1=O): -3.16 kcal/mol
solvation free energy, 298 K (in CN(C)C=O): -3 kcal/mol
solvation free energy, 298 K (in CNC=O): -2.67 kcal/mol
solvation free energy, 298 K (in COCCO): -2.99 kcal/mol
solvation free energy, 298 K (in CS(C)=O): -2.47 kcal/mol
solvation free energy, 298 K (in O): 1.6 kcal/mol
solvation free energy, 298 K (in O=CN1CCOCC1): -2.47 kcal/mol
solvation free energy, 298 K (in OC1CCCCC1): -3.44 kcal/mol
solvation free energy, 298 K (in OCCOCCO): -1.85 kcal/mol
solvation free energy, 298 K (in OCCS): -2.33 kcal/mol
solvation free energy, 298 K (in OCc1ccccc1): -3.01 kcal/mol

SMILES: FCC(F)(F)F
solvation free energy, 298 K (in CCCCCCCC(=O)OCC(COC(=O)CCCCCCC)OC(=O)CCCCCCC): -1.21 kcal/mol
solvation free energy, 298 K (in CCCCCCCCC): -0.76 kcal/mol
solvation free energy, 298 K (in CCCCCCCCO): -0.89 kcal/mol
solvation free energy, 298 K (in CN1CCCC1=O): -1.96 kcal/mol
solvation free energy, 298 K (in CN(C)C=O): -2.21 kcal/mol
solvation free energy, 298 K (in O): 0.56 kcal/mol

SMILES: c1ccc2c(c1)oc1ccccc12
solvation free energy, 298 K (in CC(=O)N(C)C): -9.94 kcal/mol
solvation free energy, 298 K (in CN1CCCC1=O): -10 kcal/mol
solvation free energy, 298 K (in O): -3.31 kcal/mol

SMILES: Clc1ccc(Cl)c(-c2cc(Cl)c(Cl)cc2Cl)c1
solvation free energy, 298 K (in CCCCCCCCO): -12 kcal/mol
solvation free energy, 298 K (in O): -2.82 kcal/mol

SMILES: CCCCCCCCCCCC
solvation free energy, 298 K (in CCCCCC): -8.24 kcal/mol
solvation free energy, 298 K (in CN(C)C=O): -6.15 kcal/mol
solvation free energy, 298 K (in OCCOCCO): -4.02 kcal/mol
solvation free energy, 298 K (in OCCOCCOCCO): -4.27 kcal/mol
solvation free energy, 298 K (in OCCOCCOCCOCCO): -4.58 kcal/mol

SMILES: O=C1CCCC1
solvation free energy, 298 K (in CCCCCCC): -4.53 kcal/mol
solvation free energy, 298 K (in CCCCCCCCCCCCCCCC): -4.22 kcal/mol
solvation free energy, 298 K (in CCCCCCCCO): -5.02 kcal/mol
solvation free energy, 298 K (in CCCCCl): -5.46 kcal/mol
solvation free energy, 298 K (in CCCCOCCCC): -4.82 kcal/mol
solvation free energy, 298 K (in ClC(Cl)(Cl)Cl): -5.54 kcal/mol
solvation free energy, 298 K (in ClCCCl): -6.26 kcal/mol
solvation free energy, 298 K (in O): -4.72 kcal/mol
solvation free energy, 298 K (in [2H]O[2H]): -4.75 kcal/mol

The remaining lines, values ahead:

solvation free energy, 298 K (in O): -3.25 kcal/mol
SMILES: CC(=O)OC1(C(C)C)CC=C(C)CC1 (stereo unspecified)

solvation free energy, 298 K (in O): -4.86 kcal/mol
SMILES: Cc1ccnc(C)c1

solvation free energy, 298 K (in CCCCCCCC): -4.89 kcal/mol
solvation free energy, 298 K (in CCCCCCCCCC): -4.82 kcal/mol
SMILES: CCCC(C)CO (stereo unspecified)

solvation free energy, 298 K (in C=CCCCCCCCCCCCCCC): -3.86 kcal/mol
solvation free energy, 298 K (in O): 0.61 kcal/mol
SMILES: CC=CC=CC

solvation free energy, 298 K (in CC(C)c1ccccc1): -4.1 kcal/mol
solvation free energy, 298 K (in CCc1ccccc1): -4.58 kcal/mol
solvation free energy, 298 K (in O): -10.2 kcal/mol
SMILES: NC=O

solvation free energy, 298 K (in O): -3.2 kcal/mol
SMILES: CCCCCCCCCCCCCN

solvation free energy, 298 K (in O): 0.35 kcal/mol
SMILES: C=C1C2CCC(C2)C1(C)CCC=C(C)C (stereo unspecified)

solvation free energy, 298 K (in O): -5.45 kcal/mol
SMILES: CCc1cnccn1

solvation free energy, 298 K (in O): -6.83 kcal/mol
SMILES: CCCCCCCCOC(=O)c1ccccc1C(=O)OCCCC

solvation free energy, 298 K (in CCCCCCCC): -4.6 kcal/mol
solvation free energy, 298 K (in CCCCCCCCCC): -4.55 kcal/mol
SMILES: CC(C)C(C)(C)O

solvation free energy, 298 K (in C1CCOC1): -13.7 kcal/mol
solvation free energy, 298 K (in CCCCCCCCO): -13.1 kcal/mol
solvation free energy, 298 K (in CCCCCO): -13 kcal/mol
solvation free energy, 298 K (in CCCCO): -13.2 kcal/mol
solvation free energy, 298 K (in CCCO): -13.2 kcal/mol
solvation free energy, 298 K (in CCO): -13.3 kcal/mol
solvation free energy, 298 K (in CCOC(C)=O): -12.8 kcal/mol
solvation free energy, 298 K (in CO): -13.6 kcal/mol
solvation free energy, 298 K (in O): -10.9 kcal/mol
SMILES: CCOc1ccc(NC(C)=O)cc1

solvation free energy, 298 K (in O): -4.84 kcal/mol
SMILES: Cc1cncc(C)c1

solvation free energy, 298 K (in O): -9.07 kcal/mol
SMILES: O=C(O)CCCc1ccccc1

solvation free energy, 298 K (in O): 0 kcal/mol
SMILES: CCCCCCCl

solvation free energy, 298 K (in O): -5.95 kcal/mol
SMILES: CNCc1ccc(C)cc1

solvation free energy, 298 K (in CC(C)(C)O): -5.91 kcal/mol
solvation free energy, 298 K (in CC(C)CC(C)(C)C): -4.69 kcal/mol
solvation free energy, 298 K (in CC(C)CO): -6.19 kcal/mol
solvation free energy, 298 K (in CC(C)O): -5.88 kcal/mol
solvation free energy, 298 K (in CCC(C)O): -6 kcal/mol
solvation free energy, 298 K (in CCOC(C)=O): -5.67 kcal/mol
solvation free energy, 298 K (in O): -4.63 kcal/mol
SMILES: Cc1ccccn1

solvation free energy, 298 K (in CCCCCCCC): -4.11 kcal/mol
solvation free energy, 298 K (in CCCCCCCCCCCCCCCC): -3.91 kcal/mol
solvation free energy, 298 K (in CCCCCCCCO): -4.3 kcal/mol
solvation free energy, 298 K (in CCOCCO): -4.58 kcal/mol
solvation free energy, 298 K (in CN1CCCC1=O): -4.49 kcal/mol
solvation free energy, 298 K (in O): -2.7 kcal/mol
solvation free energy, 298 K (in O=CN1CCOCC1): -4.3 kcal/mol
solvation free energy, 298 K (in [2H]O[2H]): -2.8 kcal/mol
SMILES: CCOC(=O)CC
